One assay has as its system HSP72 in U2OS cells. Nature of the assay: Cell-based ELISA (Cellisa) assay, U2OS cells: inhibition of 17-AAG-induced HSP72. As to conditions: Homo sapiens; U2OS cells (Examples 1-168). The method, then:
U2OS cells (5-8×10^4 cells/mL) or SK-OV-3 cells (5-8×10^4 cells/mL) were seeded into 96-well plates and incubated at 37° C. for 48 h. Compounds were then added at a range of concentrations and incubated for 1 h before addition of 17-AAG (250 nM). Cells were then incubated for 18 h. The medium was removed washed 2× with PBS and cells were then fixed with fixing solution (4% paraformaldehyde, 0.3% TritonX-100 in PBS) for 30 min at 4° C. The plates were then washed 2× with PBS before blocking with 5% milk for 30 min at 37° C. After washing the plates 4× with 0.1% Tween-20/deionised water, HSP72 antibody (SPA-810, Enzo Life) was added for 1.5 h at 37° C. Following 4× washes, the plates were incubated with europium-labelled anti-mouse antibody (0.6 ug/ml) in Delfia assay buffer (Perkin Elmer) for 1 h at 37° C. After washing the plates, Delfia enhancement solution was added, shaken for 10 min before reading in the Envision plate reader (Perkin-Elmer) with excitation at 340 nm and emission at 615 nm. The plates were washed again before protein determination using the bicinchoninic acid assay (BCA assay, Pierce Biotechnology). The europium counts were normalised for the amount of protein in each well. The 50% inhibitory concentration value of the compound was then calculated.
(An ELISA detects its analyte on a solid surface through an enzyme-linked reagent.)
As a reminder, the IC50 is the concentration at which inhibition is half-maximal. High values mean lower potency, low ones higher potency. On to `COC(C)c1ccc2cc(C(=O)Nc3cc(NC(=O)c4ccc5c(c4)OCCO5)ccc3C)ccc2n1` (centres unmarked) [Example 153, N-(5-(2,3-dihydrobenzo[b][1,4]dioxine-6-carboxamido)-2-methylphenyl)-2-(1-methoxyethyl)quinoline-6-carboxamide], for which the half-maximal inhibitory concentration (IC50) came out at 140 nM.
On to `Cc1ccc2cc(C(=O)Nc3cc(NC(=O)c4cc5c(cc4F)OCCO5)ccc3C)ccc2n1` [Example 130, N-(5-(7-fluoro-2,3-dihydrobenzo[b][1,4]dioxine-6-carboxamido)-2-methylphenyl)-2-methylquinoline-6-carboxamide], for which the IC50 worked out at 156 nM.
In the case of `Cc1ccc(NC(=O)c2ccc3c(c2)OCCO3)cc1NC(=O)c1ccc2ccncc2c1` [Example 2, N-(5-(2,3-dihydrobenzo[b][1,4]dioxine-6-carboxamido)-2-methylphenyl)isoquinoline-7-carboxamide], half-maximal inhibition (IC50) was put at 7 nM.
Same read-out and setting: with `Cc1ccc(NC(=O)c2ccc3c(c2)OCCO3)cc1NC(=O)c1ccc2ncsc2c1` [Example 114, N-(5-(2,3-dihydrobenzo[b][1,4]dioxine-6-carboxamido)-2-methylphenyl)benzo[d]thiazole-6-carboxamide] the figure was 35 nM.
Regarding `Cc1cc(NCCN2CCCC2)c2cc(C(=O)Nc3cc(NC(=O)c4ccc5c(c4)OCCO5)ccc3C)ccc2n1` [Example 117, N-(5-(2,3-dihydrobenzo[b][1,4]dioxine-6-carboxamido)-2-methylphenyl)-2-methyl-4-(2-(pyrrolidin-1-yl)ethylamino)quinoline-6-carboxamide], 635 nM corresponded to half-maximal inhibition (IC50).
Compound `CCNc1ccc(C(=O)Nc2cc(NC(=O)c3ccc4c(c3)OCCO4)ccc2C)cn1` [Example 102, N-(5-(2,3-dihydrobenzo[b][1,4]dioxine-6-carboxamido)-2-methylphenyl)-6-(ethylamino)nicotinamide] showed an IC50 of 835 nM.
Compound `Cc1ccc(NC(=O)c2ccc3c(c2)OCCO3)cc1NC(=O)c1ccc(OCc2cncs2)cc1` [Example 20, N-(4-methyl-3-(4-(thiazol-5-ylmethoxy)benzamido)phenyl)-2,3-dihydrobenzo[b][1,4]dioxine-6-carboxamide] returned a concentration for half-maximal inhibition (IC50) of 1480 nM.
`Cc1ccc(NC(=O)c2ccc3c(c2)OCCO3)cc1NC(=O)c1cc(N(C)CCN(C)C)c2ncccc2c1` [Example 162, N-(5-(2,3-dihydrobenzo[b][1,4]dioxine-6-carboxamido)-2-methylphenyl)-8-((2-(dimethylamino)ethyl)(methyl)amino)quinoline-6-carboxamide] came in with a half-maximal inhibitory concentration (IC50) of 984 nM.
Consider `Cc1ccc(NC(=O)c2ccc3c(c2)OCCO3)cc1NC(=O)c1ccc2c(c1)CCC(CN(C)C(=O)OC(C)(C)C)N2` (centres unmarked) [Example 85, tert-butyl ((6-((5-(2,3-dihydrobenzo[b][1,4]dioxine-6-carboxamido)-2-methylphenyl)carbamoyl)-1,2,3,4-tetrahydroquinolin-2-yl)methyl)(methyl)carbamate], for which the IC50 was 1140 nM.
Compound `Cc1cc(NCCCN(C)C)c2cc(C(=O)Nc3cc(NC(=O)c4ccc5c(c4)OCCO5)ccc3C)ccc2n1` [Example 111, N-(5-(2,3-dihydrobenzo[b][1,4]dioxine-6-carboxamido)-2-methylphenyl)-4-(3-(dimethylamino)propylamino)-2-methylquinoline-6-carboxamide] yielded a half-maximal inhibitory concentration (IC50) of 1840 nM.
In the case of `Cc1ccc(NC(=O)c2ccc3c(c2)OCCO3)cc1NC(=O)c1ccc2nc(C(C)O)ccc2c1` (centres unmarked) [Example 142, N-(5-(2,3-dihydrobenzo[b][1,4]dioxine-6-carboxamido)-2-methylphenyl)-2-(1-hydroxyethyl)quinoline-6-carboxamide], the IC50 came out at 51 nM.
`COc1cccc(C(=O)Nc2cc(NC(=O)c3ccc4c(c3)OCCO4)ccc2C)c1` [Example 40, N-(3-(3-methoxybenzamido)-4-methylphenyl)-2,3-dihydrobenzo[b][1,4]dioxine-6-carboxamide] displayed a half-maximal inhibitory concentration (IC50) of 1160 nM.
Same read-out and setting: with `Cc1ccc(NC(=O)c2ccc3c(c2)OCCO3)cc1NC(=O)c1ccc2nc(N3CCOCC3)ccc2c1` [Example 32, N-(5-(2,3-dihydrobenzo[b][1,4]dioxine-6-carboxamido)-2-methylphenyl)-2-morpholinoquinoline-6-carboxamide] the figure was 665 nM; with `Cc1ccc(NC(=O)c2ccc3c(c2)OCCO3)cc1NC(=O)c1ccc(Nc2cccc(I)c2)nc1` [Example 38, N-(5-(2,3-dihydrobenzo[b][1,4]dioxine-6-carboxamido)-2-methylphenyl)-6-((3-iodophenyl)amino)nicotinamide], 41 nM.
The compound `Cc1ccc(NC(=O)c2ccc3c(c2)OCCO3)cc1NC(=O)c1ccc2c(c1)CC[C@H](C)N2` [Example 154, (S)—N-(5-(2,3-dihydrobenzo[b][1,4]dioxine-6-carboxamido)-2-methylphenyl)-2-methyl-1,2,3,4-tetrahydroquinoline-6-carboxamide] yielded an IC50 of 145 nM.
In the case of `Cc1cc(NCCN2CCOCC2)c2cc(C(=O)Nc3cc(NC(=O)c4ccc5c(c4)OCCO5)ccc3C)ccc2n1` [Example 118, N-(5-(2,3-dihydrobenzo[b][1,4]dioxine-6-carboxamido)-2-methylphenyl)-2-methyl-4-(2-morpholinoethylamino)quinoline-6-carboxamide], the midpoint of inhibition, the IC50, lay at 618 nM.
The compound `Cc1ccc(NC(=O)c2ccc3c(c2)OCCO3)cc1NC(=O)c1ccc2c(c1)CC[C@@H](C)N2` [Example 155, (R)—N-(5-(2,3-dihydrobenzo[b][1,4]dioxine-6-carboxamido)-2-methylphenyl)-2-methyl-1,2,3,4-tetrahydroquinoline-6-carboxamide] had an IC50 of 227 nM.
With `Cc1ccc(NC(=O)c2ccc3c(c2)OCCO3)cc1NC(=O)c1ccc2c(c1)CCC(C)N2C` (centres unmarked) [Example 159, N-(5-(2,3-dihydrobenzo[b][1,4]dioxine-6-carboxamido)-2-methylphenyl)-1,2-dimethyl-1,2,3,4-tetrahydroquinoline-6-carboxamide], the concentration for half-maximal inhibition (IC50) stood at 345 nM.
For the compound `Cc1ccc2cc(C(=O)Nc3cc(NC(=O)c4ccc5c(c4)OCCCO5)ccc3C)ccc2n1` [Example 132, N-(5-(3,4-dihydro-2H-benzo[b][1,4]dioxepine-7-carboxamido)-2-methylphenyl)-2-methylquinoline-6-carboxamide], the midpoint of inhibition, the IC50, lay at 226 nM.
The same measure, in the same setting: next, `Cc1ccc(NC(=O)c2ccc3c(c2)OCCO3)cc1NC(=O)c1ccc(N)nc1` [Example 104, 6-amino-N-(5-(2,3-dihydrobenzo[b][1,4]dioxine-6-carboxamido)-2-methylphenyl)nicotinamide]: 482 nM.
As for `Cc1ccc(NC(=O)c2ccc3c(c2)OCCO3)cc1NC(=O)c1ccc2c(ccc[n+]2[O-])c1` [Example 23, 6-((5-(2,3-dihydrobenzo[b][1,4]dioxine-6-carboxamido)-2-methylphenyl)carbamoyl)quinoline 1-oxide], half-maximal inhibition (IC50) was put at 161 nM.
Compound `Cc1ccc2cc(C(=O)Nc3cc(NC(=O)c4ccc5c(c4)OCCO5)ccc3C)ccc2c1` [Example 108, N-(4-methyl-3-(6-methyl-2-naphthamido)phenyl)-2,3-dihydrobenzo[b][1,4]dioxine-6-carboxamide] showed a half-maximal inhibitory concentration (IC50) of 483 nM.
Compound `Cc1ccc(NC(=O)c2ccc3c(c2)OCCO3)cc1NC(=O)c1ccc2c(c1)CCN(C(=O)OC(C)(C)C)C2` [Example 31, tert-butyl 6-((5-(2,3-dihydrobenzo[b][1,4]dioxine-6-carboxamido)-2-methylphenyl)carbamoyl)-3,4-dihydroisoquinoline-2(1H)-carboxylate] yielded an IC50 of 545 nM.
The same measure, in the same setting: next, `Cc1ccc(NC(=O)c2ccc3c(c2)OCCO3)cc1NC(=O)c1ccc(-c2ccccc2)nc1` [Example 37, N-(5-(2,3-dihydrobenzo[b][1,4]dioxine-6-carboxamido)-2-methylphenyl)-6-phenylnicotinamide]: 1960 nM; `CCc1ccc2cc(C(=O)Nc3cc(NC(=O)c4ccc5c(c4)OCCO5)ccc3C)ccc2n1` [Example 77, N-(5-(2,3-dihydrobenzo[b][1,4]dioxine-6-carboxamido)-2-methylphenyl)-2-ethylquinoline-6-carboxamide]: 26 nM; `Cc1ccc(NC(=O)c2ccc3c(c2)OCCO3)cc1NC(=O)c1ccc2c(c1)CCCCN2` [Example 82, N-(5-(2,3-dihydrobenzo[b][1,4]dioxine-6-carboxamido)-2-methylphenyl)-2,3,4,5-tetrahydro-1H-benzo[b]azepine-7-carboxamide]: 156 nM.
Still for that read-out and setting: next, `Cc1ccc(NC(=O)c2ccc3c(c2)OCCO3)cc1NC(=O)c1ccc2nc(Cl)ccc2c1` [Example 12, 2-chloro-N-(5-(2,3-dihydrobenzo[b][1,4]dioxine-6-carboxamido)-2-methylphenyl)quinoline-6-carboxamide]: 51 nM; `CCC(=O)NCCOc1ccc2cc(C(=O)Nc3cc(NC(=O)c4ccc5c(c4)OCCO5)ccc3C)ccc2n1` [Example 81, N-(5-(2,3-dihydrobenzo[b][1,4]dioxine-6-carboxamido)-2-methylphenyl)-2-(2-propionamidoethoxy)quinoline-6-carboxamide]: 100 nM.

Staying with this assay, now noted: U2OS cells (Examples 1-168).
“N-(5-(2,3-dihydrobenzo[b][1,4]dioxine-6-carboxamido)-2-methyl)phenyl)-2-methyl-4-(2-(pyrrolidin-1-yl)ethoxy)quinoline-6-carboxamide [Example 120]”: the IC50 is 2730 nM.
